Laboratory results reported in PubChem BioAssay AID2060900 (Molecular Pharmacology Branch, DTP, NCI, 2025).

Tested on: 521955-158-R2-J5-PDC complex spheroids, viability
Experiment: Anticancer human tumor 521955-158-R2-J5-PDC patient-derived pancreatic carcinoma cell line growth inhibition [RAS]
Conditions: for IC50: curve of first compound; for viability, T/C: stronger effect = lower value
Summary of the method: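 Agents were tested in combination matrices in half-log decrements from a top concentration at or near clinical Cmax (10 microM if undetermined). Targets were multi-cell spheroids of tumour lines plus HUVEC and MSC stromal cells.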

[1] = second compound 0.000949 µM, first compound 0.0316 µM
[2] = second compound 0.000949 µM, first compound 0.1 µM
[3] = second compound 0.000949 µM, first compound 0.316 µM
[4] = second compound 0.000949 µM, first compound 1 µM
[5] = second compound 0.003 µM, first compound 0.0316 µM
[6] = second compound 0.003 µM, first compound 0.1 µM
[7] = second compound 0.003 µM, first compound 0.316 µM
[8] = second compound 0.003 µM, first compound 1 µM
[9] = second compound 0.00949 µM, first compound 0.0316 µM
[10] = second compound 0.00949 µM, first compound 0.1 µM
[11] = second compound 0.00949 µM, first compound 0.316 µM
[12] = second compound 0.00949 µM, first compound 1 µM
[13] = second compound 0.03 µM, first compound 0.0316 µM
[14] = second compound 0.03 µM, first compound 0.1 µM
[15] = second compound 0.03 µM, first compound 0.316 µM
[16] = second compound 0.03 µM, first compound 1 µM
[17] = second compound 0.0949 µM, first compound 0.0316 µM
[18] = second compound 0.0949 µM, first compound 0.1 µM
[19] = second compound 0.0949 µM, first compound 0.316 µM
[20] = second compound 0.0949 µM, first compound 1 µM
[21] = second compound 0.3 µM, first compound 0.0316 µM
[22] = second compound 0.3 µM, first compound 0.1 µM
[23] = second compound 0.3 µM, first compound 0.316 µM
[24] = second compound 0.3 µM, first compound 1 µM
[25] = second compound 0.000949 µM, first compound 0.00316 µM
[26] = second compound 0.000949 µM, first compound 0.01 µM
[27] = second compound 0.003 µM, first compound 0.00316 µM
[28] = second compound 0.003 µM, first compound 0.01 µM
[29] = second compound 0.00949 µM, first compound 0.00316 µM
[30] = second compound 0.00949 µM, first compound 0.01 µM
[31] = second compound 0.03 µM, first compound 0.00316 µM
[32] = second compound 0.03 µM, first compound 0.01 µM
[33] = second compound 0.0949 µM, first compound 0.00316 µM
[34] = second compound 0.0949 µM, first compound 0.01 µM
[35] = second compound 0.3 µM, first compound 0.00316 µM
[36] = second compound 0.3 µM, first compound 0.01 µM
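Also: compound exposure lasted seven days before the viability read.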
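For viability, T/C in this document: spheroids also contain HUVEC endothelial cells and mesenchymal stem cells as stroma.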

CC1(O)CCCC1n1c(=O)c(C(F)F)cc2cnc(NC3CCN(S(C)(=O)=O)CC3)nc21 (stereo unspecified) + CCn1c(-c2cc(N3CCN(C)CC3)cnc2C(C)OC)c2c3cc(ccc31)-c1csc(n1)CC(NC(=O)C1CC1C)C(=O)N1CCCC(N1)C(=O)OCC(C)(C)C2
IC50 (second compound 0.000949 µM): 0.0316 µM
IC50 (second compound 0.003 µM): < 0.0316 µM
IC50 (second compound 0.00949 µM): < 0.0316 µM
IC50 (second compound 0.03 µM): < 0.0316 µM
IC50 (second compound 0.0949 µM): < 0.0316 µM
IC50 (second compound 0.3 µM): < 0.0316 µM
viability, T/C [1]: 33%
viability, T/C [2]: 39%
viability, T/C [3]: 36.6%
viability, T/C [4]: 42.8%
viability, T/C (second compound 0.000949 µM, first compound 3.16 µM): 63.2%
viability, T/C (second compound 0.000949 µM, first compound 10 µM): 9%
viability, T/C [5]: 35.6%
viability, T/C [6]: 34.5%
viability, T/C [7]: 37.5%
viability, T/C [8]: 43.1%
viability, T/C (second compound 0.003 µM, first compound 3.16 µM): 50.5%
viability, T/C (second compound 0.003 µM, first compound 10 µM): 10.9%
viability, T/C [9]: 29.2%
viability, T/C [10]: 29.9%
viability, T/C [11]: 33.2%
viability, T/C [12]: 32.6%
viability, T/C (second compound 0.00949 µM, first compound 3.16 µM): 49.6%
viability, T/C (second compound 0.00949 µM, first compound 10 µM): 9.41%
viability, T/C [13]: 18.9%
viability, T/C [14]: 20.1%
viability, T/C [15]: 20.8%
viability, T/C [16]: 24.8%
viability, T/C (second compound 0.03 µM, first compound 3.16 µM): 28.9%
viability, T/C (second compound 0.03 µM, first compound 10 µM): 6.82%
viability, T/C [17]: 10.6%
viability, T/C [18]: 13.1%
viability, T/C [19]: 13.9%
viability, T/C [20]: 16.2%
viability, T/C (second compound 0.0949 µM, first compound 3.16 µM): 21.5%
viability, T/C (second compound 0.0949 µM, first compound 10 µM): 7%
viability, T/C [21]: 10.8%
viability, T/C [22]: 11.3%
viability, T/C [23]: 11.2%
viability, T/C [24]: 13.9%
viability, T/C (second compound 0.3 µM, first compound 3.16 µM): 19.1%
viability, T/C (second compound 0.3 µM, first compound 10 µM): 6.07%

O=C(c1ccc(F)c(F)c1Nc1ccc(I)cc1F)N1CC(O)([C@@H]2CCCCN2)C1 + CCn1c(-c2cc(N3CCN(C)CC3)cnc2C(C)OC)c2c3cc(ccc31)-c1csc(n1)CC(NC(=O)C1CC1C)C(=O)N1CCCC(N1)C(=O)OCC(C)(C)C2
IC50 (second compound 0.000949 µM): 0.0209 µM
IC50 (second compound 0.003 µM): < 0.00316 µM
IC50 (second compound 0.00949 µM): < 0.00316 µM
IC50 (second compound 0.03 µM): < 0.00316 µM
IC50 (second compound 0.0949 µM): < 0.00316 µM
IC50 (second compound 0.3 µM): < 0.00316 µM
viability, T/C [25]: 59.3%
viability, T/C [26]: 50.1%
viability, T/C [1]: 49.4%
viability, T/C [2]: 38.6%
viability, T/C [3]: 26.4%
viability, T/C [4]: 24.1%
viability, T/C [27]: 41.5%
viability, T/C [28]: 46.7%
viability, T/C [5]: 39%
viability, T/C [6]: 26.8%
viability, T/C [7]: 20.1%
viability, T/C [8]: 17.4%
viability, T/C [29]: 32.3%
viability, T/C [30]: 32.1%
viability, T/C [9]: 29.2%
viability, T/C [10]: 17.4%
viability, T/C [11]: 17.8%
viability, T/C [12]: 15%
viability, T/C [31]: 23.7%
viability, T/C [32]: 18.3%
viability, T/C [13]: 14.9%
viability, T/C [14]: 10.8%
viability, T/C [15]: 10.3%
viability, T/C [16]: 6.61%
viability, T/C [33]: 8.68%
viability, T/C [34]: 11.3%
viability, T/C [17]: 12.6%
viability, T/C [18]: 8.23%
viability, T/C [19]: 9.48%
viability, T/C [20]: 7.34%
viability, T/C [35]: 12.8%
viability, T/C [36]: 7.85%
viability, T/C [21]: 6.59%
viability, T/C [22]: 9.27%
viability, T/C [23]: 7.62%
viability, T/C [24]: 6.97%

CCN1CCN(Cc2ccc(Nc3ncc(F)c(-c4cc(F)c5nc(C)n(C(C)C)c5c4)n3)nc2)CC1 + CCn1c(-c2cccnc2C(C)OC)c2c3cc(ccc31)N1CCOC(CC(NC(=O)C(C(C)C)N(C)C(=O)C3(F)CCN(C(=O)C#CC(C)(C)N(C)C)CC3)C(=O)N3CCCC(N3)C(=O)OCC(C)(C)C2)C1
IC50 (second compound 0.000949 µM): > 1 µM
IC50 (second compound 0.003 µM): > 1 µM
IC50 (second compound 0.00949 µM): > 1 µM
IC50 (second compound 0.03 µM): > 1 µM
IC50 (second compound 0.0949 µM): > 1 µM
IC50 (second compound 0.3 µM): > 1 µM
viability, T/C [25]: 96.8%
viability, T/C [26]: 87.4%
viability, T/C [1]: 61.9%
viability, T/C [2]: 80.1%
viability, T/C [3]: 87.8%
viability, T/C [4]: 74.5%
viability, T/C [27]: 88.6%
viability, T/C [28]: 89.2%
viability, T/C [5]: 81.9%
viability, T/C [6]: 75.7%
viability, T/C [7]: 79.1%
viability, T/C [8]: 70.7%
viability, T/C [29]: 85.5%
viability, T/C [30]: 80.1%
viability, T/C [9]: 74.2%
viability, T/C [10]: 79.5%
viability, T/C [11]: 69.1%
viability, T/C [12]: 74%
viability, T/C [31]: 73.8%
viability, T/C [32]: 89.7%
viability, T/C [13]: 76.9%
viability, T/C [14]: 75.1%
viability, T/C [15]: 73.1%
viability, T/C [16]: 73.6%
viability, T/C [33]: 66.8%
viability, T/C [34]: 73.9%
viability, T/C [17]: 73.7%
viability, T/C [18]: 74.6%
viability, T/C [19]: 71.6%
viability, T/C [20]: 69.4%
viability, T/C [35]: 71.5%
viability, T/C [36]: 60.8%
viability, T/C [21]: 59.9%
viability, T/C [22]: 58.1%
viability, T/C [23]: 61.6%
viability, T/C [24]: 61.1%
